According to patent US8513280B2, “Use of epothilones in the treatment of neuronal connectivity defects such as schizophrenia and autism” (Institut National de la Sante et de la Recherche Medicale, priority 2004, dated 2013):
Several values for one entry are separate records, joined by “and”; a condition that tells them apart may be missing. Identical values can stand only once.

Assays:
Type in all cases: in vivo, mouse
[1] = system: STOP deficient mice; assay: Spontaneous activity, video-recorded during 3 h, STOP KO mice
Experimental: (§1) Spontaneous activity (male and female) was recorded and quantified during a three hours period of time, as in Andrieux et al., Genes Dev. 2002 Sep. 15; 16(18):2350-64. Five activities were considered: feeding, remaining still without sleeping, walking, grooming and sleeping. For each activity, the total time spent doing the activity and the number of distinct sequences of activity, were determined.
(§2) In a first series of experiments, epothilone D was injected intra-peritoneally, once a week, at either 0.3 mg/kg/week or 3 mg/kg/week for at least 8 weeks. The drug was diluted at a final concentration of 0.3 mg/ml in water, from a 50 mg/ml stock solution in DMSO.
(§3) In a second series of experiments, epothilone D was injected intra-peritoneally, in two injections a week, at a total dose of 4 mg/kg/week, for 8 weeks. The drug was diluted at a final concentration of 0.2 mg/ml in water, from a 50 mg/ml stock solution in DMSO.
(§4) Among 61 STOP KO mice, 28 were treated with placebo injections, 33 with 3 mg/kg/week of epothilone D. Among 62 WT mice, 29 were treated with placebo injections, 33 with 3 mg/kg/week of epothilone D.
(§5) In another series of experiments, among 19 STOP KO mice, 9 were treated with placebo injections, 10 with 4 mg/kg/week epothilone D. Among 20 WT mice, 10 were treated with placebo injections and 10 with 4 mg/kg/week epothilone D.

[2] = system: WT mice; assay: Spontaneous activity, video-recorded during 3 h, WT mice
Experimental: as §1, §2, §3, §4, §5

[3] = system: STOP deficient mice; assay: Maternal behaviour: nest building and pup retrieving, STOP KO mice
Experimental: (§6) For maternal behaviour, STOP deficient or control wild type (WT) female mice, nulliparous, 8 weeks old, were treated either with a placebo (carrier alone), or with epothilone D.
(§7) The maternal behaviour of treated and untreated mice was monitored by assaying the mouse ability to build a nest and to retrieve pups
(§8) For assessment of nesting capacity, the tested mouse was placed in a 240×240×120 mm cage containing litter and provided with a Kleenex tissue folded in 4 (final dimensions, 100×100 mm). After 60 hours, the mouse ability to use the paper and to build a nest was scored as follows:
(§9) Tissue use score: 0, the Kleenex tissue remained folded; 1, the tissue has been unfolded but not shredded; 2 the tissue was shredded.
(§10) Nest building score: 0, no attempt to build a nest; 1, primitive flat nest of uncontrolled shape; 2, true nest, the paper is mixed with litter to form a circular nest, less than 80 mm in diameter.
(§11) For assessment of retrieving: following the nest building test, mice were trained and assessed for pup retrieving as in Andrieux et al. (Genes Dev. 2002 Sep. 15; 16(18):2350-64. Retrieving was scored as the number of pups retrieved (0 to 3).
Finally a global score for nesting and retrieving capacity (TNR) was determined for each mouse, by adding the tissue use, nest building, and pup retrieving scores (maximal score for TNR is 7).
The maternal behaviour of untreated and treated mice was monitored by assaying mouse ability to build a nest and to retrieve pups. Experiments were performed at 3 concentrations of epothilone D (4 mg/kg/week, 3 mg/kg/week and 0.3 mg/kg/week).
Among 69 STO KO mice, […] were treated with placebo injections, 17 were treated with 3 mg/kg/week of epothilone, and 18 were treated with 0.3 mg/kg/week of epothilone. Among 34 WT mice, 17 were treated with placebo injections, and 17 were treated with 3 mg/kg/week of epothilone.
In another series of experiments, among 19 STOP KO mice, 9 were treated with placebo injections, 10 with 4 mg/kg/week epothilone D and as control, among 20 WT mice, 10 were treated with placebo injections and 10 with 4 mg/kg/week epothilone D.

[4] = system: WT mice; assay: Maternal behaviour: nest building and pup retrieving, WT mice; settings: example II
Experimental: as §6, §7, §8, §9, §10, §11
Finally a global score for nesting and retrieving capacity (TNR) was determined for each mouse, by adding the tissue use, nest building, and pup retrieving scores (maximal score for TNR is 7). […]

[5] = system: STOP KO mice; assay: Pup survival in progeny of STOP KO mothers
Experimental: The epothilone treatment has been then tested whether it could induce pup survival in STOP KO mothers. Nine STOP KO mice treated with Epothilone D at 0.3 mg/kg/week and eight untreated females were mated the pups survival were analysed after delivery.

[6] = system: STOP KO mice; assay: Synaptic vesicle density in CA1 hippocampal synapses (electron micrographs), STOP KO mice
Experimental: It reports the quantitative analysis of synaptic vesicle density in CA1 hippocampal synapses of mice treated or not with epothilone D 3 mg/kg/week or with neuroleptics (0.5 mg/kg/day haloperidol and 5 mg/kg/day chlorpromazine, in drinking water, from birth to adulthood). Synaptic vesicle density, calculated as the ratio of the number of vesicle/nerve terminal surface (after subtraction of the surface area occupied by mitochondria). Results (means+/−s.e.m.) are shown for pooled 75 measurements from five wild type mice and from five STOP KO mice either untreated or treated with Epothilone D. For neuroleptic control experiments, results (means+/−s.e.m.) are shown for pooled 75 measurements from three STOP KO mice either untreated or treated with neuroleptics.
Hippocampus was dissected out from transcardially fixed mice, sliced and embedded in Epon. To determine the surface density of synaptic vesicles, a total of cross sections of 75 synapses made of hippocampal CA1 region were photographed randomly, and the numbers of synaptic vesicles in each nerve pre-terminal were counted on the electron micrographs. Synaptic vesicles density of STOP KO mice following long term neuroleptic treatment (0.5 mg/kg/day haloperidol and 5 mg/kg/day chlorpromazine, in drinking water, from birth to adulthood) was also examined using the same protocol. […]

[7] = STOP deficient mice, 3 mg/kg/week i.p., FIG. 1-B
[8] = STOP deficient mice, 4 mg/kg/week, 8 weeks, FIG. 2
[9] = STOP KO mice, 0.3 mg/kg/week i.p., FIG. 3
[10] = STOP KO mice, 3 mg/kg/week i.p., FIG. 3
[11] = STOP deficient mice, 4 mg/kg/week, FIG. 4

C/C1=C/CC(/C(C)=C/c2csc(C)n2)OC(=O)CC(O)C(C)(C)C(=O)C(C)C(O)C(C)CCC1 (stereo not shown) [epothilone D]
total number of shifts between activities ([1]; STOP KO mice, summary statement, dose not stated): decrease | total time spent grooming ([1]; STOP deficient mice, 3 mg/kg/week i.p. once a week, at least 8 weeks, vs placebo, FIG. 1-A): decrease | number of remaining still while awake sequences [1, 7]: reducing | number of walking sequences [1, 7]: reducing | total time spent sleeping ([1]; STOP deficient mice, 3 mg/kg/week i.p., vs placebo, FIG. 1-A): increase | total number of shifts between activities ([1]; STOP deficient mice, 3 mg/kg/week i.p., vs placebo, FIG. 1-B): decreased | total number of shifts between activities ([1]; STOP deficient mice, 4 mg/kg/week i.p. in two injections a week, 8 weeks, FIG. 2): remarkable decrease | number of feeding sequences [1, 8]: remained unaffected | number of grooming sequences [1, 8]: decrease | number of sleeping sequences [1, 8]: remained unaffected | number of walking sequences [1, 8]: decrease | total time spent grooming [1, 8]: highly significantly diminished | time spent sleeping ([1]; STOP deficient mice, 4 mg/kg/week, 8 weeks, trend (tended to increase), FIG. 2): increase | time spent remaining still without sleeping ([1]; STOP deficient mice, 4 mg/kg/week, 8 weeks, trend, FIG. 2): tended to diminish | number of sequences of stillness ([2]; 4 mg/kg/week, FIG. 2, said to be compatible with random fluctuations): significant increase | effect on the recorded activities ([2]; example I (3 and 4 mg/kg/week)): no significant effect | TNR score (global score, maximal 7) [3, 9]: highly significant increase | nest building score (0-2) [3, 9]: improved | paper use score (tissue use score, 0-2) [3, 9]: improved | pup retrieving score (0-3) [3, 9]: improved | TNR score (global score, maximal 7) [3, 10]: highly significant increase | nest building score (0-2) [3, 10]: improved | paper use score (tissue use score, 0-2) [3, 10]: improved | pup retrieving score (0-3) [3, 10]: improved | TNR score (global score, maximal 7) ([3]; STOP KO mice, 4 mg/kg/week, rose from 1.16 without treatment, highly significant increase, FIG. 4): 4.4 | nest building score (0-2) [3, 11]: strongly improved | paper use score (tissue use score, 0-2) [3, 11]: strongly improved | pup retrieving score [3, 11]: tended to improve | effect on nurturing-related behaviours [4]: no significant effect | STOP KO females with pup survival ([5]; 0.3 mg/kg/week, nine treated STOP KO females mated, no pup survival without treatment): three out of the nine | ratio of surviving pups to newborns ([5]; 0.3 mg/kg/week, per mouse, the three STOP KO females with surviving pups): 5/6 (2×) and 6/6 | maternal behaviour, compatible with pup survival ([5]; STOP deficient female mice, summary statement, dose not stated): re-established | increase of synaptic vesicle density relative to absence of treatment ([6]; CA1 hippocampal synapses, 4 mg/kg/week, p<0.001, FIG. 5): 20% | increase of synaptic vesicle density ([6]; summary statement, dose not stated): about 20%
